In paper PMC12542965, “Remolding laccase for whole-cell and in vivo modulation of dopamine signal” (Science Advances, 2025) one finds Michaelis-Menten constants data, which are given here for one molecule.

The target in experiment [1] is T1, RuCu-SLAC (remolded laccase) (Streptomyces coelicolor, UniProt Q9XAL8).
T1 construct: gene SCO6712; artificial metalloenzyme: same apo-SLAC polypeptide (E. coli BL21(DE3), N-terminal GST tag cut off by PPase) loaded with Ru3+ then Cu2+; homodimer with one Ru and three Cu; Ru-Cu binuclear centre replaces the Cu trinuclear cluster
T1 sequence (Q9XAL8 34-343): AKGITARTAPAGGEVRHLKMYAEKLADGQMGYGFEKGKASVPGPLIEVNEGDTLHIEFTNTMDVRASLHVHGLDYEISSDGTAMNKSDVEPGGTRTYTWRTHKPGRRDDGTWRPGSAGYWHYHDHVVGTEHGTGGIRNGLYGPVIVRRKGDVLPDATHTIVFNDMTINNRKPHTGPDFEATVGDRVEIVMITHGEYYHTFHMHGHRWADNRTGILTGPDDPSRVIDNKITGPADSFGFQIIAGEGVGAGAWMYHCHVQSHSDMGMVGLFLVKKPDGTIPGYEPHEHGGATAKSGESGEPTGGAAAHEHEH
The experiment can be described thus: UV-vis quinone formation at […] nm. The experiment is classed as biochemical. The conditions noted are these: 50 mM sodium phosphate, O2 as co-substrate, pH 6.0 to 8.0 (pH series); Ru-Cu artificial metal centre; T1 Cu quantified at 590 nm.

Experiment [2] addresses T2, native SLAC (bacterial small laccase) (Streptomyces coelicolor, UniProt Q9XAL8).
T2 construct: gene SCO6712; reconstituted with CuCl2 (T1 Cu and T2/T3 Cu trinuclear cluster); trimer
T2 sequence (Q9XAL8 34-343): T1 sequence (Q9XAL8 34-343)
The experiment can be described thus: UV-vis quinone formation at […] nm. The experiment is classed as biochemical. The settings on record: 50 mM sodium phosphate, O2 as co-substrate, pH 6.0 to 8.0 (pH series); native Cu-reconstituted enzyme; T1 Cu quantified at 590 nm.

SMILES strings stand for the structures.

As to `NCCc1ccc(O)c(O)c1` [dopamine], the Michaelis-Menten constants result in experiment [1] was “Michaelis-Menten constants and Kcat (turnover number) of both enzymes with a dopamine substrate”; in experiment [2] it was “Michaelis-Menten constants and Kcat (turnover number) of both enzymes with a dopamine substrate”.
